Patent US5032597A, “Method of using phenylquinolinecarboxylic acids and derivatives for lymthoid leukemia treatment in a mammal” (priority 1987, dated 1991)
Values after ≈ are worked out from the molar mass of the structure shown. Counter-ions that a name gives are not always drawn. Like-named read-outs stand apart in the source and are kept apart here.

Assays:
[1] = system: L1210 leukemia; assay: Lymphoid Leukemia L1210, survival of tumored mice; format: in vivo, CD2F1 mice; details: for response vs control in vivo at 100 mg/kg: 100 mg/kg i.p.
Summary of the method: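 Male CD2 F1 mice, six per group, received 10^5 L1210 cells i.p. on day 0. Compounds in hydroxypropylcellulose, saline/Tween 80 or saline were given i.p. at various doses once daily on days 1-9, with vehicle controls.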

[2] = system: human colon carcinoma cells HCT-15; assay: Human colon tumor test in vitro, HCT-15 cell growth inhibition; format: cell-based; details: for IC50: Homo sapiens, HCT-15, 72 h, read-out: in vitro HCT-15 ID50 (50 percent inhibition of number of doublings); for in vitro HCT-15 ID50 (50 percent inhibition of number of doublings): 4320 min
Summary of the method: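 HCT-15 human colon adenocarcinoma cells in RPMI 1640 with 10% heat-inactivated FCS, compound added on day 1 and cells counted by hemocytometer on day 4. ID50 is the concentration (μg/ml) halving the number of doublings, from log-log dose-response plots.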

[3] = HCT-15 cells, compound day 1 to day 4
[4] = Mus musculus, L1210, ip, 720 h, read-out: L1210 Leukemia % T/C (median survival time)

Cc1c(-c2ccc(-c3ccccc3F)cc2)nc2ccc(F)cc2c1C(=O)O [Example 28, 2-(2'-Fluoro-1,1'-biphenyl-4-yl)-6-fluoro-3-methyl4-quinolinecarboxylic acid]
response vs control in vivo at 18 mg/kg ([1]; Mus musculus, L1210, ip, 720 h, 18 mg/kg i.p., read-out: L1210 Leukemia % T/C (median survival time)): 174%
IC50 [2, 3]: < 0.5 µg/mL

O=C(O)c1cc(-c2ccc(Oc3ccc(F)cc3)cc2)nc2ccc(F)cc12 [Example 187]
response vs control in vivo at 75 mg/kg ([1]; Mus musculus, L1210, ip, 720 h, 75 mg/kg i.p., read-out: L1210 Leukemia % T/C (median survival time)): 131%
IC50 [2, 3]: < 0.5 µg/mL

CCCCCCc1ccc(-c2nc3ccc(F)cc3c(C(=O)O)c2C)cc1 [Example 8]
response vs control in vivo at 400 mg/kg ([1]; Mus musculus, L1210, ip, 720 h, 400 mg/kg i.p., read-out: L1210 Leukemia % T/C (median survival time)): 147%
IC50 [2, 3]: 0.4 µg/mL (≈ 1.09 µM)

Cc1c(-c2ccc(-c3ccccc3)cc2)nc2c(Br)cc(Br)cc2c1C(=O)O [Example 60]
response vs control in vivo at 300 mg/kg ([1]; Mus musculus, L1210, ip, 720 h, 300 mg/kg i.p., read-out: L1210 Leukemia % T/C (median survival time)): 192%
IC50 [2, 3]: < 0.5 µg/mL

Cc1c(-c2ccc(-c3ccccc3F)cc2)nc2ccc(F)cc2c1C(=O)[O-].[Na+] [Example 118, Sodium 2-(2'-Fluoro-1,1'-biphenyl-4-yl)-6-fluoro-3-methylquinoline-4-carboxylate]
response vs control in vivo at 25 mg/kg ([1]; Mus musculus, L1210, ip, 720 h, read-out: L1210 Leukemia % T/C (median survival time), 25 mg/kg i.p.): 179%
IC50 [2]: 0.017 µg/mL

CCN(CC)CCOC(=O)c1c(C)c(-c2ccc(-c3ccccc3F)cc2)nc2ccc(F)cc12 [Example 201]
response vs control in vivo at 100 mg/kg [1, 4]: 175%
IC50 [2, 3]: > 1 µg/mL

Cc1c(-c2ccc(-c3ccccc3)cc2)nc2ccc(Cl)cc2c1C(=O)O [Example 109]
response vs control in vivo at 100 mg/kg [1, 4]: 172%
in vitro HCT-15 ID50 (50 percent inhibition of number of doublings) [2, 3]: < 0.50 µg/mL

Cc1c(-c2ccc(Oc3ccc(Cl)cc3)cc2)nc2ccc(F)cc2c1C(=O)O [Example 29]
L1210 Leukemia % T/C (median survival time) ([1]; 18 mg/kg i.p.): 194%
IC50 [2, 3]: < 0.5 µg/mL

Cc1cc2c(C(=O)O)c(C)c(-c3ccc(-c4ccccc4)cc3)nc2cc1Cl [Example 58]
response vs control in vivo at 150 mg/kg ([1]; Mus musculus, L1210, ip, 720 h, 150 mg/kg i.p., read-out: L1210 Leukemia % T/C (median survival time)): 141%
in vitro HCT-15 ID50 (50 percent inhibition of number of doublings) [2, 3]: > 0.50 µg/mL

Cc1c(-c2ccc(-c3ccccc3F)cc2)nc2ccc(F)cc2c1C(=O)OCCN(C)C [Example 198, [6-Fluoro-2-(2'-fluoro-1,1'-biphenyl-4-yl)3-methyl-[(2-dimethylamino)ethyl]ester-4-quinolinecarboxylic acid] hydrochloride]
response vs control in vivo at 100 mg/kg [1, 4]: 178%
in vitro HCT-15 ID50 (50 percent inhibition of number of doublings) ([2]; HCT-15 cells, compound day 1 to day 4, hydrochloride): < 10^-3 μg/ml
